Measured values published in patent US6358885B1, “Substituted phenylheterocyclic herbicides” (Mississippi State University, priority 1992, dated 2002).

What was measured:
sorghum = assay: Test B preemergence/postemergence greenhouse plant response rating 0 to 10; assay type: in vivo, Sorghum bicolor; details: for Plant response rating, Sorghum: 0 to 10 scale
How it was run: (§1)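 Planted seeds are treated preemergence with compound dissolved in a non-phytotoxic solvent, while postemergence applications go onto plants of two to eighteen cm. Plants stay in the greenhouse twelve to sixteen days and are then rated visually relative to controls.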

soybean = assay: Test C preemergence/postemergence greenhouse plant response rating 0 to 100; assay type: in vivo, Glycine max; details: for Plant response rating, Soybean: 125 g/ha, 0 to 100 scale
How it was run: (§2)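 Compounds in non-phytotoxic solvent went onto sandy loam before emergence (seeded one day earlier) or onto plants at the one-to-four leaf stage. Duck salad was treated via flood water (~2.5 cm, maintained) over silt loam.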

giant foxtail = assay: Test B preemergence/postemergence greenhouse plant response rating 0 to 10; assay type: in vivo, Setaria faberii; details: for Plant response rating, Giant foxtail: 0 to 10 scale
How it was run: as §1

wild buckwheat [1] = assay: Test C preemergence/postemergence greenhouse plant response rating 0 to 100; assay type: in vivo, Polygonum convolvulus; details: for Plant response rating, Wild buckwheat: 125 g/ha, 0 to 100 scale
How it was run: as §2

corn = assay: Test B preemergence/postemergence greenhouse plant response rating 0 to 10; assay type: in vivo, Zea mays; details: for Plant response rating, Corn: 0 to 10 scale
How it was run: as §1

velvetleaf = assay: Test C preemergence/postemergence greenhouse plant response rating 0 to 100; assay type: in vivo, Abutilon theophrasti; details: for Plant response rating, Velvetleaf: 125 g/ha, 0 to 100 scale
How it was run: as §2

cheatgrass = assay: Test B preemergence/postemergence greenhouse plant response rating 0 to 10; assay type: in vivo, Bromus secalinus; details: for Plant response rating, Cheatgrass: 0 to 10 scale
How it was run: as §1

wild buckwheat [2] = assay: as above; assay type: in vivo, Polygonum convolvulus; details: for Plant response rating, Wild buckwheat: 0 to 10 scale
How it was run: as §1

cotton = assay: Test C preemergence/postemergence greenhouse plant response rating 0 to 100; assay type: in vivo, Gossypium hirsutum; details: for Plant response rating, Cotton: 125 g/ha, 0 to 100 scale
How it was run: as §2

downy brome = assay: as above; assay type: in vivo, Bromus tectorum; details: for Plant response rating Downy Brome: 125 g/ha, 0 to 100 scale
How it was run: as §2

With `COCOc1cc(-c2nn3c(c2Cl)CCCC3)c(F)cc1Cl` [Compound 58] the “Plant response rating, Sorghum” value (sorghum; POSTEMERGENCE, Rate 50 g/ha) was 4, the “Plant response rating, Sorghum” value (sorghum; PREEMERGENCE, Rate 50 g/ha) was 2 and the “Plant response rating (0 to 10 scale), Sorghum” value (sorghum; PREEMERGENCE, Rate 200 g/ha) was 3. The “Plant response rating, Sorghum” value (sorghum; Rate 200 g/ha, POSTEMERGENCE) was 6, the “Plant response rating, Soybean” value (soybean; POSTEMERGENCE) was 85 and the “Plant response rating (0 to 100), Soybean” value (soybean; POSTEMERGENCE, Rate 2 g/ha) was 50. For the same molecule, the “Plant response rating, Soybean” value (soybean; PREEMERGENCE) was 0, the “Plant response rating (0 to 100), Soybean” value (soybean; PREEMERGENCE, Rate 2 g/ha) was 0 and the “Plant response rating (0 to 100), Soybean” value (soybean; Rate 8 g/ha, POSTEMERGENCE) was 50. For the same molecule, the “Plant response rating (0 to 100), Soybean” value (soybean; Rate 8 g/ha, PREEMERGENCE) was 0, the “Plant response rating (0 to 100), Soybean” value (soybean; Rate 31 g/ha, POSTEMERGENCE) was 70 and the “Plant response rating (0 to 100), Soybean” value (soybean; Rate 31 g/ha, PREEMERGENCE) was 0. The “Plant response rating, Giant foxtail” value (giant foxtail; POSTEMERGENCE, Rate 50 g/ha) was 6, the “Plant response rating, Giant foxtail” value (giant foxtail; PREEMERGENCE, Rate 50 g/ha) was 9 and the “Plant response rating (0 to 10 scale), Giant foxtail” value (giant foxtail; PREEMERGENCE, Rate 200 g/ha) was 10. For the same molecule, the “Plant response rating, Giant foxtail” value (giant foxtail; Rate 200 g/ha, POSTEMERGENCE) was 6, the “Plant response rating, Wild buckwheat” value (wild buckwheat [1]; POSTEMERGENCE) was 100 and the “Plant response rating (0 to 100), Wild buckwheat” value (wild buckwheat [1]; POSTEMERGENCE, Rate 2 g/ha) was 100. For the same molecule, the “Plant response rating, Wild buckwheat” value (wild buckwheat [1]; PREEMERGENCE) was 100, the “Plant response rating (0 to 100), Wild buckwheat” value (wild buckwheat [1]; PREEMERGENCE, Rate 2 g/ha) was 0 and the “Plant response rating (0 to 100), Wild buckwheat” value (wild buckwheat [1]; Rate 8 g/ha, POSTEMERGENCE) was 100. The “Plant response rating (0 to 100), Wild buckwheat” value (wild buckwheat [1]; Rate 8 g/ha, PREEMERGENCE) was 40, the “Plant response rating (0 to 100), Wild buckwheat” value (wild buckwheat [1]; Rate 31 g/ha, POSTEMERGENCE) was 100 and the “Plant response rating (0 to 100), Wild buckwheat” value (wild buckwheat [1]; Rate 31 g/ha, PREEMERGENCE) was 100. For the same molecule, the “Plant response rating, Corn” value (corn; POSTEMERGENCE, Rate 50 g/ha) was 5, the “Plant response rating, Corn” value (corn; PREEMERGENCE, Rate 50 g/ha) was 2 and the “Plant response rating (0 to 10 scale), Corn” value (corn; PREEMERGENCE, Rate 200 g/ha) was 4. For the same molecule, the “Plant response rating, Corn” value (corn; Rate 200 g/ha, POSTEMERGENCE) was 6, the “Plant response rating, Velvetleaf” value (velvetleaf; POSTEMERGENCE) was 100 and the “Plant response rating (0 to 100), Velvetleaf” value (velvetleaf; POSTEMERGENCE, Rate 2 g/ha) was 40. The “Plant response rating, Velvetleaf” value (velvetleaf; PREEMERGENCE) was 100, the “Plant response rating (0 to 100), Velvetleaf” value (velvetleaf; PREEMERGENCE, Rate 2 g/ha) was 0 and the “Plant response rating (0 to 100), Velvetleaf” value (velvetleaf; Rate 8 g/ha, POSTEMERGENCE) was 75. The “Plant response rating (0 to 100), Velvetleaf” value (velvetleaf; Rate 8 g/ha, PREEMERGENCE) was 40, the “Plant response rating (0 to 100), Velvetleaf” value (velvetleaf; Rate 31 g/ha, POSTEMERGENCE) was 80 and the “Plant response rating (0 to 100), Velvetleaf” value (velvetleaf; Rate 31 g/ha, PREEMERGENCE) was 100. For the same molecule, the “Plant response rating, Cheatgrass” value (cheatgrass; POSTEMERGENCE, Rate 50 g/ha) was 7, the “Plant response rating, Cheatgrass” value (cheatgrass; PREEMERGENCE, Rate 50 g/ha) was 4 and the “Plant response rating (0 to 10 scale), Cheatgrass” value (cheatgrass; PREEMERGENCE, Rate 200 g/ha) was 8. For the same molecule, the “Plant response rating, Cheatgrass” value (cheatgrass; Rate 200 g/ha, POSTEMERGENCE) was 10, the “Plant response rating, Wild buckwheat” value (wild buckwheat [2]; POSTEMERGENCE, Rate 50 g/ha) was 10 and the “Plant response rating, Wild buckwheat” value (wild buckwheat [2]; PREEMERGENCE, Rate 50 g/ha) was 9. For the same molecule, the “Plant response rating (0 to 10 scale), Wild buckwheat” value (wild buckwheat [2]; PREEMERGENCE, Rate 200 g/ha) was 10, the “Plant response rating, Wild buckwheat” value (wild buckwheat [2]; Rate 200 g/ha, POSTEMERGENCE) was 10 and the “Plant response rating, Cotton” value (cotton; POSTEMERGENCE) was 100. The “Plant response rating (0 to 100), Cotton” value (cotton; POSTEMERGENCE, Rate 2 g/ha) was 95, the “Plant response rating, Cotton” value (cotton; PREEMERGENCE) was 40 and the “Plant response rating (0 to 100), Cotton” value (cotton; PREEMERGENCE, Rate 2 g/ha) was 0. The “Plant response rating (0 to 100), Cotton” value (cotton; Rate 8 g/ha, POSTEMERGENCE) was 100, the “Plant response rating (0 to 100), Cotton” value (cotton; Rate 8 g/ha, PREEMERGENCE) was 0 and the “Plant response rating (0 to 100), Cotton” value (cotton; Rate 31 g/ha, POSTEMERGENCE) was 100. The “Plant response rating (0 to 100), Cotton” value (cotton; Rate 31 g/ha, PREEMERGENCE) was 10, the “Plant response rating Downy Brome” value (downy brome; POSTEMERGENCE) was 90 and the “Plant response rating (0 to 100), Downy Brome” value (downy brome; POSTEMERGENCE, Rate 2 g/ha) was 20. For the same molecule, the “Plant response rating Downy Brome” value (downy brome; PREEMERGENCE) was 70.
